# Test results: patent publication US20250082625A1, “NOVEL THERAPY” (priority 2016, published 2025)
# Where no end group is shown, it is not given here.
# Assays:
# [1] = test system: HTB-9 cells; experiment: Pre-treatment of HTB-9 bladder epithelial cells before CY17 infection (confocal imaging, ELISA); assay type: cell-based, human; conditions: for IL-1β secretion (ELISA, culture supernatants) / SP secretion (ELISA, culture supernatants): pre-treated before CY17 infection
# Description: (§1) Cells were grown on 8-well chamber slides (6×10^4 cells/well, Thermo Fischer Scientific) or in 6-well plates (6×10^5 cells/well) for 16 hours in media supplemented with 10% FBS. Media were removed, and cells were washed with PBS before adding medium without FBS. Cells were infected with bacteria diluted to appropriate concentration in PBS and incubated for one or four hours at 37° C. with 5% CO2.
# (§2) The two cell types were first infected with increasing concentrations of the acute cystitis strain E. coli CY-17 (10^2-10^4 cfu/ml) for 1 to 4 hours. NK1R and SP expression was used as a read out of the cellular response. […] A concentration of 10^4 cfu/ml of CY-17 and four hours of infection was chosen for further studies. Under these conditions, there was little cytotoxicity. To further characterize the neuropeptide response to bladder infection, the in vitro analysis was extended to include GALR2, OrxR2 and TAS2R43. Confocal microscopy was used in this instance. Infected cells were fixed (3.7% formaldehyde, 15 min), permeabilized (0.25% triton X-100, 5% FBS, 10 min), blocked (5% FBS, 1 h at RT), incubated overnight with primary antibodies in 5% FBS: Anti-NK1R (1:100, SC-15323, Santa Cruz), anti-SP, (1:200, ORB11399, Biorbyt), anti-orexin receptor 2, (1:200, AB10470, Abcam), anti-TAS2R43, (1:200, AB65513, Abcam), and anti-GALR2 antibodies (1:100, AB136264, Abcam). Appropriate fluorescently labeled secondary antibodies were used (Alexa Fluor® 488 goat anti-rabbit IgG, A-11034; Life Technologies, (1 hour at Room Temperature). After nuclear staining (DRAQ5, 1:1000, Abcam) slides were mounted (Fluoromount, Sigma-Aldrich), imaged by laser scanning confocal microscopy (MSM510 META confocal microscope, Carl Zeiss) and quantified by ImageJ software 1.46r (NIH).
# (§3) HTB-9 cells and differentiated SH-SY5Y cells were pre-treated with SR140333, or IL-1RA Anakinra (500 ng/ml) for 30 minutes before infection with CY17 (10^4 cfu/ml, four hours), or treatment with exogenous recombinant SP (R&D System) or IL-1β (Abnova) (20 ng/ml, four hours). After infection, cells were infected with CY17 and the NK1R, SP and IL-1β response was quantified by confocal imaging. IL-1β- and SP secretion was quantified by ELISA, in culture supernatants. In nerve- and bladder epithelial cells, SR140333 inhibited the SP/NK1R response to infection, consistent with an autocrine activation loop involving SP/NK1R as shown by confocal imaging (FIG. 10a). […] SP activated IL-1β expression and secretion in bladder epithelial cells but had no effect on IL-1β on nerve cells. (*=P<0.05, **=P<0.01, ***=P<0.001, Two-tailed t-test for confocal imaging data and Mann-Whitney U-test for ELISAs.
# Furthermore, to examine if the effects of NK1R inhibition can be generalized, we used two additional NK1R antagonists (CP99994 and L703.303). HTB-9 cells and differentiated SH-SY5Y cells were pre-treated with SR140333, CP99994, L-703.606 or IL-1RA Anakinra (500 ng/ml) for 30 minutes before infection with CY17 (10^4 cfu/ml, four hours), or treatment with exogenous recombinant SP (R&D System) or IL-1β (Abnova) (20 ng/ml, four hours).
# [2] = test system: Asc^−/− mice; experiment: Anakinra treatment of infected Asc^−/− mice (bladder NK1R/SP staining, disease severity); assay type: in vivo
# Description: FIG. 8a The mice were pre-treated with interleukin 1 receptor antagonist (IL1-RA) Anakinra, 30 min before infection and daily after infection with E. coli CFT073 (1 mg in 100 μl of PBS i.p. per mouse). FIG. 8b Reduction in NK1R in Anakinra® treated compared to untreated control mice. Bladder tissue sections from infected Asc^−/− mice treated with Anakinra® were stained for NK1R. […] FIG. 8c Reduction in SP staining in Anakinra® treated Asc^−/− mice compared to untreated mice. […] Sections were obtained from 3 mice per group; one of two experiments is shown. *=p<0.05, **=p<0.01, two tailed t-test). FIG. 8d The disease severity score was reduced by the Anakinra (n=3-4, ***P<0.001, compared to untreated Asc^−/− mice, Fisher's exact test, Reference for (d):.
# To confirm the importance of Il1b for the neuropeptide response, susceptible Asc^−/− mice were treated with the IL-1 receptor (IL-1R) antagonist Anakinra® (FIG. 8a). This therapeutic approach was recently shown to be effective against acute cystitis, as Anakinra® attenuated the hyper-inflammatory response to infection and prevented bladder pathology in susceptible mice.
# These findings were confirmed in vitro by pretreating nerve cells and bladder epithelial cells with Anakinra (500 ng/ml) followed by CY-17 infection (10^4 CFU/ml, 4 hours).
# [3] = test system: differentiated SH-SY5Y cells; experiment: Pre-treatment of differentiated SH-SY5Y nerve cells before CY17 infection (confocal imaging, ELISA); assay type: cell-based, human
# Description: as §1, §2, §3
# Furthermore, to examine if the effects of NK1R inhibition can be generalized, we used two additional NK1R antagonists (CP99994 and L703.303). […]
# [4] = test system: Asc^−/− mice; conditions: cited from earlier work
# [5] = test system: differentiated SH-SY5Y cells; experiment: Treatment of differentiated SH-SY5Y nerve cells with exogenous recombinant SP or IL-1β; assay type: cell-based, human; conditions: four hours
# Description: as §3
# [6] = test system: HTB-9 cells; experiment: Treatment of HTB-9 bladder epithelial cells with exogenous recombinant SP or IL-1β; assay type: cell-based, human; conditions: four hours
# Description: as §3
# [7] = infected Asc^−/− mice, 1 mg in 100 μl PBS i.p. 30 min before and daily after infection, vs infected controls without therapy
# [8] = susceptible mice, recently shown
# [9] = exogenous recombinant SP 20 ng/ml
compound,measurement,setting,value
"Ic1ccccc1CN[C@@H]1C2CCN(CC2)[C@@H]1C(c1ccccc1)c1ccccc1 [L703.606, (2R,3R)-2-benzhydryl-N-[(2-iodanylphenyl)methyl]-1-azabicyclo[2.2.2]octan-3-amine]","IL-1β secretion (ELISA, culture supernatants)",[1],decreased
same,"SP secretion (ELISA, culture supernatants)",[1],decreased
"COc1ccccc1CN[C@H]1CCCN[C@H]1c1ccccc1 [CP99994, (2S,3S)-N-[(2-Methoxyphenyl)methyl]-2-phenyl-3-piperidinamine]","IL-1β secretion (ELISA, culture supernatants)",[1],decreased
same,"SP secretion (ELISA, culture supernatants)",[1],decreased
Anakinra: interleukin 1 receptor antagonist (IL1-RA) Anakinra,"NK1R response (mucosal NK1R staining, bladder sections)",[2]; [7],marked reduction
same,"SP response (mucosal SP staining, bladder sections)",[2]; [7],marked reduction
same,baseline NK1R staining,[2]; uninfected mice,reduced
same,baseline SP staining,[2]; uninfected mice,reduced
same,NK1R staining,"[3]; Anakinra 500 ng/ml pretreatment, CY-17 infection (10^4 CFU/ml, 4 hours)",marked reduction
same,SP/NK1R response to infection (confocal imaging),"[3]; pre-treated 30 minutes before CY17 (10^4 cfu/ml, four hours)",no effect
same,disease severity score,"[4]; compared to untreated Asc^−/− mice, n=3-4, P<0.001",reduced
same,bladder pathology,[4]; [8],prevented
same,hyper-inflammatory response to infection,[4]; [8],attenuated
same,"IL-1β secretion (ELISA, culture supernatants)",[1],inhibited
same,NK1R expression / staining,"[1]; pretreatment prior to CY17 infection (10^4 CFU/ml, 4 hours)",marked reduction
IL-1β: exogenous recombinant IL-1β (Abnova),SP/NK1R expression,[5]; exogenous IL-1β 20 ng/ml,increased
same,SP/NK1R expression,[6]; exogenous IL-1β 20 ng/ml,increased
"SP: exogenous recombinant SP (R&D System), ligand of NK1R (RPKPQQFFGLM-NH2; ends and bridges not checked; UniProt P20366 58-68, looked up)",IL-1β,[5]; [9],no effect
same,IL-1β expression and secretion,[6]; [9],activated
